Laboratory results reported in patent US6011000A, “Compositions for the treatment of blood disorders” (priority 1995, dated 2000).

Assays:
[1] = test system: fetal globin synthesis in tissue culture cells; settings: cited from earlier work
[2] = Hemoglobin and red blood cell levels in a patient with thalassemia intermedia; assay type: in vivo, human; design: Hgb-A1 / Hgb-A2 / HbF: unit not given here; settings: for RBC: 50 mg/kg 3 days/week
Protocol: This patient received isobutyramide at 50 mg/kg for 3 days/week over the course of the study.

[3] = test system: human erythroid cells; assay: DNA fragmentation by flow cytometry (degradation of DNA); assay type: cell-based
Protocol: Such activities might limit their utility for treatment of anemias such as occur in thalassemia, but alternatively would be useful for anticancer effects. To determine cell viability, human erythroid cells were cultured in the presence and absence of these compounds for 4 days and the amount of DNA fragmentation which occurred was measured.
Flow cytometric determination of DNA profiles and DNA fragmentation were determined. Cytometric analysis was performed with a FACScan (Becton Dickenson Instruments; Columbia, Md.). The data analysis and display were performed using the Cell-Fit software program. Approximately 0.5×10^6 cells were washed twice with PBS and resuspended in 1 ml of 1% sodium citrate, 0.1% Triton X-100 and 50 μg of propidium iodide/ml. Resulting permeabilized cells were kept in the dark at 4° C. overnight before DNA profile or DNA fragmentation analysis (Table 4).

[4] = test system: MCF-7 cells; assay: Growth/viability of human mammary carcinoma cells; assay type: cell-based; settings: MCF7, 96 h, 1.0 mM, 4 days, read-out: growth decrease of MCF-7 cells
Protocol: Human mammary carcinoma cells (MCF-7) were cultured alone (controls) and with arginine butyrate or isobutyramide for 4 days. Viability was assayed by FACS after incubation with a fluorescent dye taken up by viable cells (FIG. 6). Growth was decreased by 50% with isobutyramide at 1.0 mM, about 60% with arginine butyrate at 0.5 mM, and greater than 90% with arginine butyrate at 1.0 mM.

[5] = test system: erythroid cells (peripheral blood); assay: Erythroid cell viability by fluorescent staining (Calcein-AM), FIG. 2; assay type: cell-based, human; settings: 0.5 mM, vs untreated controls
Protocol: FIG. 2 Peripheral blood cell viability after incubation with arginine butyrate, dihydrocinnamic acid, phenoxyacetic acid and butyric acid ethyl ester.
Compositions were tested for the ability to directly stimulate erythroid cell growth. Cell growth stimulation is a useful property for an agent to be used to treat anemias and distinguishes such agents from the cytotoxic drugs currently being tested for treatment of hemoglobinopathies. Cell viability analyses were performed using fluorescent staining to detect living cells. Cells were in log phase of growth in 6-well dishes when used in proliferation assays. For enumeration of living cells, wells were washed once with medium to remove nonadherent or dead cells. Remaining live cells were labeled with 2 μM 2',7'-bis-(carboxyethyl)-5-(and 6)-carboxy-fluorescein acetoxy-methyl ester (Calcein-AM) (Molecular Probes; Eugene, Oreg.) for 20 minutes at 37° C. and washed once. Fluorescence intensity of live cells was read on a CytoFluor 2300 Fluorescence Plate Scanner (Millipore; Bedford, Mass.) at excitation and emission wavelengths of 485 and 530 nm, respectively. The fluorescence intensity of a well was proportional to the number of living cells in the well. Background fluorescence was measured separately for each plate and subtracted from all readings. Each experiment was performed in triplicate or quadruplicate. The standard deviation (SD) of repetitive readings was less than 30% of the mean. Results are depicted in FIG. 2.

[6] = test system: γ-globin promoter (-61 construct, K562 cells); assay type: cell-based, human
From the text: Functional assay underscores the important role of FRE-γ1 in γ-globin gene expression in K562 cells. To ascertain whether the FRE elements of the γ-globin promoter that were identified by in vivo footprinting were indeed involved in arginine butyrate inducibility for γ-globin gene expression, a series of 5' deletion constructs of the γ-globin promoter, extending from -256 to -61, were constructed and linked them to the NEO gene. Activity of the NEO gene of these constructs, in response to arginine butyrate treatment, was examined by transfecting these reporters into K562 cells. In K562 cells, a construct driven by 256 bp of promoter was able to direct NEO activity expression, resulting in colony formation. […] Deletion to position -61 reduced promoter activity to 33-40% of the activity seen with the -256 bp construct.

[7] = test system: fetal globin production; settings: cited from earlier work
[8] = test system: system A transport (K562 cells and nucleated erythroblasts from fetal liver); assay: Effects on system A amino acid transport (3H-MAIB uptake); assay type: cell-based, human
Protocol: Inhibition of nutrient uptake is undesirable for treatment of anemias. Methyl aminoisobutyric acid (MAIB) labeled with tritium (^3 H) is normally taken up by system A amino acid transport. Cold (unlabeled) compounds were added to cultures containing ^3 H-MAIB and incubated for 1 hour. Cells were harvested and the amount of ^3 H taken up by cells was quantitated by scintillation counting.

[9] = test system: globin expression; settings: cited from earlier work
[10] = test system: fetal globin expression in K562 human erythroleukemia cells; settings: cited from earlier work
[11] = test system: Friend leukemia cells; settings: cited from earlier work
[12] = test system: fetal globin synthesis; settings: cited from earlier work
[13] = test system: γ globin mRNA of bone marrow cells; settings: cited from earlier work
[14] = test system: fetal reticulocyte production; settings: cited from earlier work
[15] = test system: cultured human erythrocytes; settings: cited from earlier work
[16] = 50 mg/kg, 3 days/week, four month study

**Q.** With “GM-CSF: granulocyte/macrophage-colony stimulating factor (GM-CSF)” as the molecule, how does the fetal globin synthesis [1] read?
**A.** increase fetal globin synthesis in tissue culture cells

**Q.** What does the source list for `CC(C)C(N)=O` [IBT, isobutyramide]?
**A.** rise in hematocrit (Hct) [2, 16]: 5.8%; rise in hemoglobin (Hgb) [2, 16]: 1.6 g/dL; rise in reticulocytes (Retics) [2, 16]: about 50%; rise in total red blood cells (RBC) [2, 16]: ~10^6 /μl; total red blood cells (RBC) at end ([2]; 50 mg/kg, 3 days/week, four month study, from 6.48): 7.3 10^6 cells/μl; hemoglobin (Hgb) at end ([2]; 50 mg/kg, 3 days/week, four month study, from 10.1): 11.7 g/dL; hematocrit (Hct) at end ([2]; 50 mg/kg, 3 days/week, four month study, from 31.0%): 36.9%; HbF ([2]; Day 1): 4.4; Hct ([2]; Day 1): 31.1%; Hgb ([2]; Day 1): 10.1 g/dL; Hgb-A1 ([2]; Day 1): 89.2; Hgb-A2 ([2]; Day 1): 6.4; RBC ([2]; Day 1): 6.48 10^6 cells/μl; HbF ([2]; Day 8): 6.4; Hct ([2]; Day 8): 36.2%; Hgb ([2]; Day 8): 10.8 g/dL; Hgb-A1 ([2]; Day 8): 89.2; Hgb-A2 ([2]; Day 8): 6.2; RBC ([2]; Day 8): 6.76 10^6 cells/μl; HbF ([2]; Day 15): 4.4; Hct ([2]; Day 15): 37.0%; Hgb ([2]; Day 15): 11.1 g/dL; Hgb-A1 ([2]; Day 15): 89.2; Hgb-A2 ([2]; Day 15): 6.4; RBC ([2]; Day 15): 6.89 10^6 cells/μl; HbF ([2]; Day 22): 0.4; Hct ([2]; Day 22): 34.1%; Hgb ([2]; Day 22): 10.3 g/dL; Hgb-A1 ([2]; Day 22): 89.1; Hgb-A2 ([2]; Day 22): 6.9; RBC ([2]; Day 22): 6.28 10^6 cells/μl; HbF ([2]; Day 29): 4.4; Hct ([2]; Day 29): 36.3%; Hgb ([2]; Day 29): 10.9 g/dL; Hgb-A1 ([2]; Day 29): 88.6; Hgb-A2 ([2]; Day 29): 7.0; RBC ([2]; Day 29): 6.61 10^6 cells/μl; HbF ([2]; Day 36): 0.4; Hct ([2]; Day 36): 33.8%; Hgb ([2]; Day 36): 10.4 g/dL; Hgb-A1 ([2]; Day 36): 88.4; Hgb-A2 ([2]; Day 36): 7.6; RBC ([2]; Day 36): 6.28 10^6 cells/μl; HbF ([2]; Day 43): 8.4; Hct ([2]; Day 43): 36.2%; Hgb ([2]; Day 43): 11.0 g/dL; Hgb-A1 ([2]; Day 43): 88.7; Hgb-A2 ([2]; Day 43): 6.5; RBC ([2]; Day 43): 6.38 10^6 cells/μl; HbF ([2]; Day 55): 5.4; Hct ([2]; Day 55): 34.0%; Hgb ([2]; Day 55): 11.4 g/dL; RBC ([2]; Day 55): 6.68 10^6 cells/μl; HbF ([2]; Day 68): 1.4; Hct ([2]; Day 68): 36.4%; Hgb ([2]; Day 68): 11.5 g/dL; RBC ([2]; Day 68): 6.68 10^6 cells/μl; Hct ([2]; Day 96): 36.9%; Hgb ([2]; Day 96): 11.7 g/dL; RBC ([2]; Day 96): 7.33 10^6 cells/μl; fetal globin (HbF) ([2]; four month study): lack of increased fetal globin (HbF); Hemoglobin-A1 level ([2]; throughout the study): approximately constant; hemoglobin-A2 level ([2]; throughout the study): approximately constant; proportion of degraded DNA ([3]; 1.0 mM to 2.0 mM, untreated 26%): 44%; Degraded DNA ([3]; 2.0 mM, 4 days, control 26%, 22%): 34%; DNA fragmentation / cell viability / DNA integrity ([3]; DNA fragmentation assays): decrease cell viability; inhibition at 1000 µM [4]: 50%; erythroid cell growth and proliferation [5]: either had no effect or stimulated erythroid cell growth and proliferation; induction of construct activity [6]: 2.5-4 fold; stimulation of fetal globin production [7]: effective in stimulating fetal globin production; system A (neutral) amino acid transport [8]: inhibited the neutral amino acid transport mechanism

**Q.** Which “specificity to fetal globin” value [9] does the source give for `NC(=O)NO` [Hydroxyurea] here?
**A.** did not appear to be very specific to fetal globin

**Q.** Which “increase of fetal globin expression” value [10] does the source give for `CCC(=O)O` [propionate] here?
**A.** most effective

**Q.** And the hemoglobin synthesis [11]?
**A.** induced hemoglobin synthesis

**Q.** For `CC(=O)O` [acetate], which hemoglobin synthesis [11] is on record?
**A.** induced hemoglobin synthesis

**Q.** What about the “duration of positive effects” value [12] of the same molecule?
**A.** positive effects could only be maintained for very short periods of time

**Q.** What about the “erythrocyte precursor populations and fetal globin synthesis” value [12] of the same molecule?
**A.** increased both erythrocyte precursor populations and also fetal globin synthesis

**Q.** With `Nc1ncn([C@@H]2O[C@H](CO)[C@@H](O)[C@H]2O)c(=O)n1` [AZA, 5-azacytidine] as the molecule, how does the “increase in γ globin mRNA of bone marrow cells” value ([13]; continuous intravenous) read?
**A.** five- to seven-fold increase

**Q.** What about the “population of stem cells in the bone marrow” value ([13]; in vivo) of the same molecule?
**A.** significant alterations in the population of stem cells in the bone marrow

**Q.** For `Nc1ccn([C@@H]2O[C@H](CO)[C@@H](O)[C@@H]2O)c(=O)n1` [AraC, cytosine arabinoside], which fetal reticulocyte production [14] is on record?
**A.** induces fetal reticulocyte production

B1: activin: Activin, sometimes referred to as erythroid differentiating factor (EDF) (protein, UniProt P08476 311-426, looked up)
Inhibin beta A chain: GLECDGKVNICCKKQFFVSFKDIGWNDWIIAPSGYHANYCEGECPSHIAGTSGSSLSFHSTVINHYRMRGHSPFANLKSCCVPTKLRPMSMLYYDDGQNIIKKDIQNMIVEECGCS
modifications: Inhibin beta A chain
**Q.** For B1, which hemoglobin accumulation [15] is on record?
**A.** induced hemoglobin accumulation in cultured human erythrocytes

B2: inhibin: Inhibin, a disulfide linked hormone of two subunits (protein, UniProt P05111 233-366; P08476 311-426, looked up)
Inhibin alpha chain: STPLMSWPWSPSALRLLQRPPEEPAAHANCHRVALNISFQELGWERWIVYPPSFIFHYCHGGCGLHIPPNLSLPVPGAPPTPAQPYSLLPGAQPCCAALPGTMRPLHVRTTSDGGYSFKYETVPNLLTQHCACI
Inhibin beta A chain: GLECDGKVNICCKKQFFVSFKDIGWNDWIIAPSGYHANYCEGECPSHIAGTSGSSLSFHSTVINHYRMRGHSPFANLKSCCVPTKLRPMSMLYYDDGQNIIKKDIQNMIVEECGCS
**Q.** With B2 as the molecule, how does the hemoglobin accumulation [15] read?
**A.** induced hemoglobin accumulation in cultured human erythrocytes
